Here are results for 1 compound from patent US20260048003A1, “STABLE CYCLODEXTRIN FREE CARFILZOMIB FORMULATION” (AMGEN INC., priority 2020, published 2026).

Holding throughout (assay type): physicochemical
The nature of series [1]: Organic water miscible solvent screening to dissolve CFZ-API at high concentration. As to conditions: in NMP and DMSO. The protocol:
Non-aqueous phase: (a) 200 mg/ml to 250 mg/ml of CFZ-API target concentration for the water miscible solvent screening; and (b) 20 to 50 mg/ml of CFZ-API target concentration for the co-solvent screening; and Aqueous phase: about 2 mg/ml target CFZ-API final concentration.
Since CFZ-API is extremely insoluble in water, various organic water miscible solvents were first screened to dissolve CFZ-API drug substance powder.

Series [2] is described as follows: Aqueous phase solvents screening to dissolve CFZ-API to about 2 mg/ml (visual, RP-HPLC after filtration). As to conditions: aqueous solution around pH 3.0 to 3.5 (methane sulfonic acid) with 10,000 MW PVP.
Source text: In Step 1 of the flow scheme preparation, non-aqueous solvents consisting of water miscible organic solvents and a co-solvent system were first added to dissolve the CFZ-API solid due its very low water solubility. […] The solution was then filtered by using 0.22 μm PES syringe filter equipped on a NORMJECT® (silicone free) syringe. The resulting filtrate was then checked for CFZ-API solubility recovery and stability on reverse phase high performance liquid chromatography (RP-HPLC). RP-HPLC was used to determine peak degradation as well as CFZ-API recovery through the use of a 3 to 5 point reference standard curve. Peak integration of standards was taken against standard buffer, 50% acetonitrile in water; while peak integration of formulation samples was taken against buffer of the formulation.
The nature of series [3]: Visual observation of the cyclodextrin-free CFZ-API sample formulation (FIG. 1). As to conditions: CFZ-API 2 mg/ml in water in the presence of phosphate buffer solution (PBS). The source says: FIG. 1 illustrates a visual comparison of carfilzomib active ingredient in (a) water, (b) cyclodextrin (CAPTISOL®) and cyclodextrin-free formulation of the present invention
Carfilzomib (CFZ) is a proteasomal inhibitor and active ingredient of KYPROLIS®, a lyophilized drug product which is for the treatment of multiple myeloma. The current commercial formulation of KYPROLIS contains CAPTISOL®, which is a cyclodextrin used to help solubility the CFZ-API. The present invention provides a stable, cyclodextrin-free formulations for CFZ-API in an aqueous solution which is suitable for injection. FIG. 1 illustrates (a) insoluble CFZ-API in water in the presence of phosphate buffer solution (PBS) (left vial); (b) current commercial KYPROLIS formulation containing CAPTISOL (middle vial); and (c) the cyclodextrin free formulation of the invention (right vial). Each sample contains CFZ-API concentration of 2 mg/ml.

Series [4] in a line: Lyophilization and bulking agent screening. The method, then:
1 mL CFZ-API liquid formulation fill as prepared above in 3 mL Schott 1A glass vial was loaded into a VirTis Genesis 12 EL lyophilizer (TS Systems LyoStar™-3, SP Scientific, Warminster, PA). The lyophilization cycle used for screening bulking agents consisted of holding shelf temperature at 4° C. for 30 minutes then cooling the shelf to −45° C. at 0.2° C./min. The annealing step was then performed at from −45° C. to −12° C. at 0.3° C./min. The primary drying and secondary drying shelf temperatures were −25° C. and 25° C., respectively. The heating rate applied to the primary and secondary drying were 0.2° C./min and 0.1° C./min, respectively.
Table 5 describes the initial lyophilization study results of formulations containing bulking agents such as PVP 12,000 MW, mannitol, or glycine pre and post lyophilization. PVP was selected as a co-solubilizing agent candidate because of high solubility of CFZ-API in PVP pre and post lyophilization as discussed above. […]
Results from the lyophilization and bulking agent screening produced mostly poor lyophilized cakes, however two selected bulking agent provided cakes that looked better in overall drug product presentation. […] The CFZ-API recovery of 1.8 mg/ml was lower than the expected of 2 mg/ml possibly due to the other components of the powder absorbing the water, making it more dilute than theoretically measured.

With `CC(C)C[C@H](NC(=O)[C@H](CCc1ccccc1)NC(=O)CN1CCOCC1)C(=O)N[C@@H](Cc1ccccc1)C(=O)N[C@@H](CC(C)C)C(=O)[C@@]1(C)CO1` [CFZ-API, Carfilzomib], the CFZ-API solubility entry in series [1] was “highly soluble”. For the same compound, the CFZ-API solubilized in series [2] is given as not below 90%. Moreover, the “Visual observation (FIG. 1)” value in series [3] is “insoluble”. Further, the “CFZ-API solubility trend with PVP concentration” value in series [4] (PVP 10% to 40%) is “higher CFZ-API solubility”. The “CFZ-API solubility trend with PVP molecular weight” value in series [4] (PVP 10,000, 12,000 and 17,000 MW) is on record as “more soluble in lower MW PVP”.
